# Results from PMC5654082 (Malaria Journal, 2017).
# Counter-ions that a name gives are not always drawn.
# Biological target: T1, MATE1 (Homo sapiens, UniProt Q96FL8)
# T1 sequence (Q96FL8 1-570): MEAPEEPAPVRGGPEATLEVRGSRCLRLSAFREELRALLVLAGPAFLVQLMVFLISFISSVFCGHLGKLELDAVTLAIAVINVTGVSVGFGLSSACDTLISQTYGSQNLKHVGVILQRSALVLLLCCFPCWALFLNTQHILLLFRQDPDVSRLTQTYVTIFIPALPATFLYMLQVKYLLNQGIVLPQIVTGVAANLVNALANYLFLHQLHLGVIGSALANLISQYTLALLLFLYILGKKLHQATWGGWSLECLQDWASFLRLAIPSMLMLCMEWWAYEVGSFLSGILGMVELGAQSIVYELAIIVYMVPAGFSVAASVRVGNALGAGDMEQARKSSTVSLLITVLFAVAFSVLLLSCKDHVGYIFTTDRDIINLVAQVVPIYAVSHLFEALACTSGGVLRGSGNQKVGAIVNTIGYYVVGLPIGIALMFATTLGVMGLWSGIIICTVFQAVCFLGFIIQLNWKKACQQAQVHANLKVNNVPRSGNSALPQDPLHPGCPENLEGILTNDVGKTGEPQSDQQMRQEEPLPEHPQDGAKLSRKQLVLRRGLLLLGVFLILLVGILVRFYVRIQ
# Experiment: Export assay in HEK293 cells co-transduced with OCT1 and MATE1
# Type: cell-based
# Design: host or cells: HEK293, baculovirus transduction (CMV promoter), transient; co-transduced with human OCT1 in the export assay
# Details: cells expressing OCT1 and MATE1; 1 µM, 1 min, pH 7.4
# Procedure: HEK293 cells were modified to transiently express (a combination of) human OCT1, OCT2, MATE1, MATE2-K, or eYFP. Briefly, cDNA of the respective genes was cloned downstream of a CMV promoter into a baculovirus, of which passage three was used to transduce HEK293 cells. These cells were seeded in poly-D-lysine coated 24- or 96-wells plates and grown in a 37 °C incubator at 5% CO2. Growth was initiated at ~ 25% confluency using 375 or 125 μL cell and complete medium (DMEM + GlutaMAX™-I supplemented with 10% fetal bovine serum) suspension per well, respectively. […]
# Import and export of PG and cycloguanil (CG) was assessed by single and double transduced HEK293 cells. […] Significant reduction in uptake (i.e. export by MATEs) was determined using ln transformation and a one-way repeated measures ANOVA with Dunnet’s post test.
# Anti-malarial concentration in the cell lysates was quantified using an LC–MS/MS system consisting of a UPLC, a binary solvent manager, a vacuum degasser and an autosampler, coupled to a Xevo TQ-S micro triple quadrupole mass spectrometer. […] Positive ion mode was used with selected reaction monitoring (SRM) for the quantitative analysis of AMO, ART, ATO, CQ, CG, DHA, LUM, MQ, PQ, PG, and QN. The peak area of the most abundant product ion was used for quantification.
compound,measurement,value
"[H]/N=C(\N/C(=N/[H])Nc1ccc(Cl)cc1)NC(C)C [Proguanil, proguanil hydrochloride]","Uptake, percentage of eYFP control cells",780 ± 70%
